Measured values published in patent publication US12540128B2, “Substituted pyridazinones as herbicides” (SYNGENTA CROP PROTECTION AG, priority 2019, dated 2026).

Assays:
Assay type in all cases: in vivo
Settings in all cases: 250 g/ha, after 13 days
[1] = test system: Amaranthus retoflexus (AMARE); assay: B1 Post-Emergence Efficacy Test 1
Method: (§1) Seeds of a variety of test species are sown in standard soil in pots:— Solanum nigrum (SOLNI), Amaranthus retoflexus (AMARE), Setaria faberi (SETFA), Echinochloa crus-galli (ECHCG), Ipomoea hederacea (IPOHE), Lolium perenne (LOLPE). After 8 days cultivation (post-emergence) under controlled conditions in a glasshouse (at 24/16° C., day/night; 14 hours light; 65% humidity), the plants are sprayed with an aqueous spray solution derived from the formulation of the technical active ingredient in acetone/water (50:50) solution containing 0.5% Tween 20 (polyoxyethylene sorbitan monolaurate, CAS RN 9005-64-5). Compounds are applied at 250 g/ha. The test plants are then grown in a glasshouse under controlled conditions in a glasshouse (at 24/16° C., day/night; 14 hours light; 65% humidity) and watered twice daily. After 13 days, the test is evaluated for the percentage damage caused to the plant. The biological activities are assessed on a five point scale (5=80-100%; 4=60-79%; 3=40-59%; 2=20-39%; 1=0-19%). A blank value in the table is indicative that the compound was not tested on that species.

[2] = test system: Ipomoea hederacea (IPOHE); assay: B1 Post-Emergence Efficacy Test 1
Method: as §1

Lolium perenne (LOLPE) [3] = assay: B1 Post-Emergence Efficacy Test 1
Method: as §1

Setaria faberi (SETFA) [4] = assay: B1 Post-Emergence Efficacy Test 1
Method: as §1

Solanum nigrum (SOLNI) [5] = assay: B1 Post-Emergence Efficacy Test 1
Method: as §1

[6] = test system: Amaranthus retoflexus (AMARE); assay: B3 Pre-Emergence Efficacy Test 1
Method: (§2) Seeds of a variety of test species were sown in standard soil in pots: Solanum nigrum (SOLNI), Amaranthus retoflexus (AMARE), Setaria faberi (SETFA), Echinochloa crus-galli (ECHCG), Ipomoea hederacea (IPOHE), Lolium perenne (LOLPE). After cultivation for one day (pre-emergence) under controlled conditions in a glasshouse (at 24/16° C., day/night; 14 hours light; 65% humidity), the plants were sprayed with an aqueous spray solution derived from the formulation of the technical active ingredient in acetone/water (50:50) solution containing 0.5% Tween 20 (polyoxyethelyene sorbitan monolaurate, CAS RN 9005-64-5). Compounds are applied at 250 g/ha. The test plants were then grown in a glasshouse under controlled conditions (at 24/16° C., day/night; 14 hours light; 65% humidity) and watered twice daily. After 13 days, the test is evaluated for the percentage damage caused to the plant. The biological activities are assessed on a five point scale (5=80-100%; 4=60-79%; 3=40-59%; 2=20-39%; 1=0-19%). A blank value in the table is indicative that the compound was not tested on that species.

[7] = test system: Echinochloa crus-galli (ECHCG); assay: B3 Pre-Emergence Efficacy Test 1
Method: as §2

[8] = test system: Ipomoea hederacea (IPOHE); assay: B3 Pre-Emergence Efficacy Test 1
Method: as §2

Lolium perenne (LOLPE) [9] = assay: B3 Pre-Emergence Efficacy Test 1
Method: as §2

Setaria faberi (SETFA) [10] = assay: B3 Pre-Emergence Efficacy Test 1
Method: as §2

Solanum nigrum (SOLNI) [11] = assay: B3 Pre-Emergence Efficacy Test 1
Method: as §2

[12] = test system: Echinochloa crus-galli (ECHCG); assay: B1 Post-Emergence Efficacy Test 1
Method: as §1

[13] = test system: Abutilon theophrasti (ABUTH); assay: B2 Post-Emergence Efficacy Test 2
Method: as §1, with “pots:—” for “pots:— Solanum nigrum (SOLNI),”, “Zea Mays (ZEAMX), Abutilon theophrasti (ABUTH).” for “Lolium perenne (LOLPE).”

[14] = test system: Amaranthus retoflexus (AMARE); assay: B2 Post-Emergence Efficacy Test 2
Method: as §1, with “pots:—” for “pots:— Solanum nigrum (SOLNI),”, “Zea Mays (ZEAMX), Abutilon theophrasti (ABUTH).” for “Lolium perenne (LOLPE).”

[15] = test system: Ipomoea hederacea (IPOHE); assay: B2 Post-Emergence Efficacy Test 2
Method: as §1, with “pots:—” for “pots:— Solanum nigrum (SOLNI),”, “Zea Mays (ZEAMX), Abutilon theophrasti (ABUTH).” for “Lolium perenne (LOLPE).”

Setaria faberi (SETFA) [16] = assay: B2 Post-Emergence Efficacy Test 2
Method: as §1, with “pots:—” for “pots:— Solanum nigrum (SOLNI),”, “Zea Mays (ZEAMX), Abutilon theophrasti (ABUTH).” for “Lolium perenne (LOLPE).”

Zea Mays (ZEAMX) [17] = assay: B2 Post-Emergence Efficacy Test 2
Method: as §1, with “pots:—” for “pots:— Solanum nigrum (SOLNI),”, “Zea Mays (ZEAMX), Abutilon theophrasti (ABUTH).” for “Lolium perenne (LOLPE).”

[18] = test system: Abutilon theophrasti (ABUTH); assay: B4 Pre-Emergence Efficacy Test 2
Method: as §2, with “pots:” for “pots: Solanum nigrum (SOLNI),”, “Zea Mays (ZEAMX), Abutilon theophrasti (ABUTH).” for “Lolium perenne (LOLPE).”

[19] = test system: Amaranthus retoflexus (AMARE); assay: B4 Pre-Emergence Efficacy Test 2
Method: as §2, with “pots:” for “pots: Solanum nigrum (SOLNI),”, “Zea Mays (ZEAMX), Abutilon theophrasti (ABUTH).” for “Lolium perenne (LOLPE).”

[20] = test system: Echinochloa crus-galli (ECHCG); assay: B4 Pre-Emergence Efficacy Test 2
Method: as §2, with “pots:” for “pots: Solanum nigrum (SOLNI),”, “Zea Mays (ZEAMX), Abutilon theophrasti (ABUTH).” for “Lolium perenne (LOLPE).”

[21] = test system: Ipomoea hederacea (IPOHE); assay: B4 Pre-Emergence Efficacy Test 2
Method: as §2, with “pots:” for “pots: Solanum nigrum (SOLNI),”, “Zea Mays (ZEAMX), Abutilon theophrasti (ABUTH).” for “Lolium perenne (LOLPE).”

Setaria faberi (SETFA) [22] = assay: B4 Pre-Emergence Efficacy Test 2
Method: as §2, with “pots:” for “pots: Solanum nigrum (SOLNI),”, “Zea Mays (ZEAMX), Abutilon theophrasti (ABUTH).” for “Lolium perenne (LOLPE).”

Zea Mays (ZEAMX) [23] = assay: B4 Pre-Emergence Efficacy Test 2
Method: as §2, with “pots:” for “pots: Solanum nigrum (SOLNI),”, “Zea Mays (ZEAMX), Abutilon theophrasti (ABUTH).” for “Lolium perenne (LOLPE).”

[24] = test system: Echinochloa crus-galli (ECHCG); assay: B2 Post-Emergence Efficacy Test 2
Method: as §1, with “pots:—” for “pots:— Solanum nigrum (SOLNI),”, “Zea Mays (ZEAMX), Abutilon theophrasti (ABUTH).” for “Lolium perenne (LOLPE).”

SMILES	percentage damage caused to the plant, five point scale, AMARE [1]	percentage damage caused to the plant, five point scale, IPOHE [2]	percentage damage caused to the plant, five point scale, LOLPE (Lolium perenne (LOLPE) [3])	percentage damage caused to the plant, five point scale, SETFA (Setaria faberi (SETFA) [4])	percentage damage caused to the plant, five point scale, SOLNI (Solanum nigrum (SOLNI) [5])	percentage damage caused to the plant, five point scale, AMARE [6]	percentage damage caused to the plant, five point scale, ECHCG [7]	percentage damage caused to the plant, five point scale, IPOHE [8]	percentage damage caused to the plant, five point scale, ABUTH [13]	percentage damage caused to the plant, five point scale, AMARE [14]	percentage damage caused to the plant, five point scale, IPOHE [15]	percentage damage caused to the plant, five point scale, SETFA (Setaria faberi (SETFA) [16])	percentage damage caused to the plant, five point scale, ZEAMX (Zea Mays (ZEAMX) [17])	percentage damage caused to the plant, five point scale, ABUTH [18]	percentage damage caused to the plant, five point scale, AMARE [19]	percentage damage caused to the plant, five point scale, ECHCG [20]	percentage damage caused to the plant, five point scale, IPOHE [21]	percentage damage caused to the plant, five point scale, SETFA (Setaria faberi (SETFA) [22])	percentage damage caused to the plant, five point scale, ZEAMX (Zea Mays (ZEAMX) [23])	percentage damage caused to the plant, five point scale, ECHCG [24]	also measured
Cc1ccc2cc(/C=C/c3c(Cl)ccc(F)c3-c3c(O)c(C)nn(C)c3=O)ccc2n1 [Compound 2.034, 4-[3-chloro-6-fluoro-2-[(E)-2-(2-methyl-6-quinolyl)vinyl]phenyl]-5-hydroxy-2,6-dimethyl-pyridazin-3-one]	1 (1=0-19%)	3 (3=40-59%)	2 (2=20-39%)	2 (2=20-39%)	5 (5=80-100%)	1 (1=0-19%)	1 (1=0-19%)	0													percentage damage caused to the plant, five point scale, LOLPE (Lolium perenne (LOLPE) [9]): 1 (1=0-19%); percentage damage caused to the plant, five point scale, SETFA (Setaria faberi (SETFA) [10]): 1 (1=0-19%); percentage damage caused to the plant, five point scale, SOLNI (Solanum nigrum (SOLNI) [11]): 2 (2=20-39%)
Cc1nn(C)c(=O)c(-c2c(F)ccc(Cl)c2CCc2ccc3c(c2)CC(=O)N3)c1O [Compound 1.357]	5 (5=80-100%)	5 (5=80-100%)	5 (5=80-100%)	5 (5=80-100%)	5 (5=80-100%)				4 (4=60-79%)	2 (2=20-39%)	4 (4=60-79%)	4 (4=60-79%)	5 (5=80-100%)	4 (4=60-79%)	4 (4=60-79%)	4 (4=60-79%)	3 (3=40-59%)	4 (4=60-79%)	1 (1=0-19%)		percentage damage caused to the plant, five point scale, ECHCG [12]: 4 (4=60-79%)
Cc1ccc2cc(/C=C/c3c(Cl)ccc(F)c3-c3c(OC(=O)C(C)C)c(C)nn(C)c3=O)ccc2n1 [Compound 4.034, [5-[3-chloro-6-fluoro-2-[(E)-2-(2-methyl-6-quinolyl)vinyl]phenyl]-1,3-dimethyl-6-oxo-pyridazin-4-yl] 2-methylpropanoate]	1 (1=0-19%)	3 (3=40-59%)	1 (1=0-19%)	2 (2=20-39%)	5 (5=80-100%)	0	0	0													percentage damage caused to the plant, five point scale, LOLPE (Lolium perenne (LOLPE) [9]): 0; percentage damage caused to the plant, five point scale, SETFA (Setaria faberi (SETFA) [10]): 0; percentage damage caused to the plant, five point scale, SOLNI (Solanum nigrum (SOLNI) [11]): 1 (1=0-19%)
Cc1nn(C)c(=O)c(-c2c(F)ccc(Cl)c2CCc2ccc3occc3c2)c1O [Compound 1.346]									4 (4=60-79%)	2 (2=20-39%)	3 (3=40-59%)	0	2 (2=20-39%)	4 (4=60-79%)	3 (3=40-59%)	0	3 (3=40-59%)	0	1 (1=0-19%)	4 (4=60-79%)	
Cc1nn(C)c(=O)c(-c2c(F)ccc(Cl)c2CCc2ccc3cnn(C)c3c2)c1O [Compound 1.353]									4 (4=60-79%)	4 (4=60-79%)	3 (3=40-59%)	4 (4=60-79%)	3 (3=40-59%)	4 (4=60-79%)	5 (5=80-100%)	5 (5=80-100%)	5 (5=80-100%)	5 (5=80-100%)	4 (4=60-79%)	4 (4=60-79%)	
Cc1nn(C)c(=O)c(-c2c(F)ccc(Cl)c2CCc2ccc3ncsc3c2)c1O [Compound 1.349]									4 (4=60-79%)	4 (4=60-79%)	4 (4=60-79%)	4 (4=60-79%)	2 (2=20-39%)	4 (4=60-79%)	5 (5=80-100%)	5 (5=80-100%)	5 (5=80-100%)	5 (5=80-100%)	4 (4=60-79%)	4 (4=60-79%)	
